In patent US20240123022A1, “A STABLE ANTI-ANGIOGENIC AND ANTI-INFLAMMATORY PHARMACEUTICAL FORMULATION AND PHARMACEUTICAL COMBINATION FOR TREATMENT AND PREVENTION OF PSORIASIS” (priority 2021, published 2024):
Read-outs that look alike come from different tables or passages of the source.

Legend:
[1] = biological target: T1, CYP2C19 (Homo sapiens, UniProt P33261); test: in vitro; type: in vitro ADME
T1 construct: purchased
Method: (§1) The study design determined inhibition potential of test item (IS217) for CYP3A4, CYP1A2, CYP2C9, CYP2D6 and CYP2C19 using high throughput inhibitor screening kit. The experiment was performed with concentrations range of 10 μg/mL to 0.005 μg/mL of test compound IS217. Positive controls taken were specific to individual kit, which were taken as follows:
(§2) At the end of incubation period, metabolism of fluorescent substrates to their metabolites was read using fluorescent multiwall spectrophotometer (Biotek reader). Very less (<20% at 10 μg/mL) to no inhibition potential was observed towards enzymes CYP3A4, CYP2C9, CYP2D6, CYP1A2 and CYP2C19.

[2] = biological target: T2, CYP3A4 (Homo sapiens, UniProt P08684); test: in vitro; type: in vitro ADME
T2 construct: purchased
T2 sequence (P08684 whole entry): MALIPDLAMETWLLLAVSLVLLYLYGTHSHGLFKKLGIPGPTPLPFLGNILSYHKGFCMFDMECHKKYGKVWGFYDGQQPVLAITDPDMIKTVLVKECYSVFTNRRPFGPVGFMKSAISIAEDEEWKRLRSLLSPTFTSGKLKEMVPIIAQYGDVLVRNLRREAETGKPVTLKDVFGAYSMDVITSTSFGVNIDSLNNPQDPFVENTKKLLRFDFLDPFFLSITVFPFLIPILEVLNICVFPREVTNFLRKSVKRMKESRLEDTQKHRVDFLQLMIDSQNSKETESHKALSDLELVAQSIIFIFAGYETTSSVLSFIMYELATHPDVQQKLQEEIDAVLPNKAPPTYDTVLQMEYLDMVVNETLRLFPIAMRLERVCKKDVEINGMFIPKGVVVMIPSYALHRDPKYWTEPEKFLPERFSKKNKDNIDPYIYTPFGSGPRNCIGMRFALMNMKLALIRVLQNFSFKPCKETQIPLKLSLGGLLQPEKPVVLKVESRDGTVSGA
Method: as §1, §2

[3] = biological target: T3, CYP2C9 (Homo sapiens, UniProt P11712); test: in vitro; type: in vitro ADME
T3 construct: purchased
T3 sequence (P11712 whole entry): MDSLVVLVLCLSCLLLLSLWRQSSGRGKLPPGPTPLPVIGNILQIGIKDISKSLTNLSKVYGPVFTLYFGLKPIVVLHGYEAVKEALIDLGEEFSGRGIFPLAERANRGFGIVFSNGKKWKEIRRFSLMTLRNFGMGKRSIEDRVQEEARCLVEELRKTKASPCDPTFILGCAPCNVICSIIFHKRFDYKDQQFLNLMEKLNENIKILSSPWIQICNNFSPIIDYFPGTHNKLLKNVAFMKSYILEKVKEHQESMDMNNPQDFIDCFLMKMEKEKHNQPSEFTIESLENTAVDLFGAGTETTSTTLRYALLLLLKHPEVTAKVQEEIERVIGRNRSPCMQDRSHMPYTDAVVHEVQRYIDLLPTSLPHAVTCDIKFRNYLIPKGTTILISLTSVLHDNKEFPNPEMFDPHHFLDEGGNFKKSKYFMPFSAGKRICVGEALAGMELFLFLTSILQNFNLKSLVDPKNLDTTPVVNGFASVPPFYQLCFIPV
Method: as §1, §2

[4] = biological target: T4, CYP2D6 (Homo sapiens, UniProt P10635); test: in vitro; type: in vitro ADME
T4 construct: purchased
T4 sequence (P10635 whole entry): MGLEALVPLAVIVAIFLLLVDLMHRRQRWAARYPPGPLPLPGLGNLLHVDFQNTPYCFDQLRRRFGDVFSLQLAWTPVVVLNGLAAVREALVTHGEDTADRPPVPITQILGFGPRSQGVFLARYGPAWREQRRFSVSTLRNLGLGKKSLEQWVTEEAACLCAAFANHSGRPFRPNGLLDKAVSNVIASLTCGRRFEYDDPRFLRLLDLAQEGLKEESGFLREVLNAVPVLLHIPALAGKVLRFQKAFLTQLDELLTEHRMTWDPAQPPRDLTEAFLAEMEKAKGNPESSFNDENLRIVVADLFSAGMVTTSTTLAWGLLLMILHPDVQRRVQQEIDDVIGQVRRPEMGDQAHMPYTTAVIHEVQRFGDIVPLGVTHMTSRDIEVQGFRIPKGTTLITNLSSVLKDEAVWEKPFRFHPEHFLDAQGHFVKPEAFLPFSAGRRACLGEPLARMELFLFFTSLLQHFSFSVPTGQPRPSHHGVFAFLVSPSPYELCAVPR
Method: as §1, §2

[5] = biological target: T5, CYP1A2 (Homo sapiens, UniProt P05177); test: in vitro; type: in vitro ADME
T5 construct: purchased
T5 sequence (P05177 whole entry): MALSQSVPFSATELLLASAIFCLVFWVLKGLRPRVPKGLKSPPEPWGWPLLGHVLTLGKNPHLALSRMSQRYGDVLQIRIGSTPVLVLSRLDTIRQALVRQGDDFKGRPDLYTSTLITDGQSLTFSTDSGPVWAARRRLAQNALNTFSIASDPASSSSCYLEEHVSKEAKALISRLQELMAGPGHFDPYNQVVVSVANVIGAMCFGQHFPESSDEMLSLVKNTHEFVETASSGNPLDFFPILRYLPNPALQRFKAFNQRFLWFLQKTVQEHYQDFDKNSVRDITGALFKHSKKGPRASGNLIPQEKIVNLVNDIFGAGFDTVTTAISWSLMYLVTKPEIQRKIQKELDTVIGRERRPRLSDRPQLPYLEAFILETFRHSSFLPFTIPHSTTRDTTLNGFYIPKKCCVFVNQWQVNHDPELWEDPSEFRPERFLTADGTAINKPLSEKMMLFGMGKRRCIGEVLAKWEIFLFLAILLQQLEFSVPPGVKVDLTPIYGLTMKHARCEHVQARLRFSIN
Method: as §1, §2

[6] = human, microsomes
Method: Metabolic stability assay was performed to determine in vitro half-life and intrinsic clearance of test item. […] Following centrifugation, the supernatant was analyzed on HPLC-UV.

[7] = tested on: Caspase 3; test: Caspase-3 activation assay in HaCaT cells; type: cell-based, human; conditions: 100 to 5000 μg/mL, 24 h and 48 h, vs untreated cells
Source text: The study aimed to determine action of IS217 on the death mediator Caspase 3 which acts as dominant regulator during cell death induction. HaCaT cells were used as test system and in house validation assay was done by using Anthralin dissolved in DMSO (positive control).

[8] = tested on: human plasma proteins; test: in vitro
Method: Test item at concentration of about 100 μg/ml was incubated with human plasma at 37° C. in water bath for about 1 hour. About 500 μL of test solution was transferred to ultrafiltration devices and centrifuged for about 15 minutes at about 13000 rpm and at 37° C. and analyzed using HPLC method.

[9] = tested on: Salmonella typhimurium tester strains; test: Bacterial reverse mutation test; type: cell-based; conditions: five tester strains, upto 1000 μg/plate, with and without metabolic activation
Source text: 17.1: Bacterial Reverse Mutation Test in Salmonella typhimurium Tester Strains:
This was confirmed by in vivo studies which are mandatory for any drug, as a part of safety toxicological studies.

[10] = biological target: T6, Topoisomerase II enzyme (Homo sapiens, UniProt P11388); test: Topoisomerase II inhibition (kinetoplast DNA decatenation, agarose gel); type: biochemical
T6 construct: purchased TopoGen TG2000H-1
T6 sequence (P11388 whole entry): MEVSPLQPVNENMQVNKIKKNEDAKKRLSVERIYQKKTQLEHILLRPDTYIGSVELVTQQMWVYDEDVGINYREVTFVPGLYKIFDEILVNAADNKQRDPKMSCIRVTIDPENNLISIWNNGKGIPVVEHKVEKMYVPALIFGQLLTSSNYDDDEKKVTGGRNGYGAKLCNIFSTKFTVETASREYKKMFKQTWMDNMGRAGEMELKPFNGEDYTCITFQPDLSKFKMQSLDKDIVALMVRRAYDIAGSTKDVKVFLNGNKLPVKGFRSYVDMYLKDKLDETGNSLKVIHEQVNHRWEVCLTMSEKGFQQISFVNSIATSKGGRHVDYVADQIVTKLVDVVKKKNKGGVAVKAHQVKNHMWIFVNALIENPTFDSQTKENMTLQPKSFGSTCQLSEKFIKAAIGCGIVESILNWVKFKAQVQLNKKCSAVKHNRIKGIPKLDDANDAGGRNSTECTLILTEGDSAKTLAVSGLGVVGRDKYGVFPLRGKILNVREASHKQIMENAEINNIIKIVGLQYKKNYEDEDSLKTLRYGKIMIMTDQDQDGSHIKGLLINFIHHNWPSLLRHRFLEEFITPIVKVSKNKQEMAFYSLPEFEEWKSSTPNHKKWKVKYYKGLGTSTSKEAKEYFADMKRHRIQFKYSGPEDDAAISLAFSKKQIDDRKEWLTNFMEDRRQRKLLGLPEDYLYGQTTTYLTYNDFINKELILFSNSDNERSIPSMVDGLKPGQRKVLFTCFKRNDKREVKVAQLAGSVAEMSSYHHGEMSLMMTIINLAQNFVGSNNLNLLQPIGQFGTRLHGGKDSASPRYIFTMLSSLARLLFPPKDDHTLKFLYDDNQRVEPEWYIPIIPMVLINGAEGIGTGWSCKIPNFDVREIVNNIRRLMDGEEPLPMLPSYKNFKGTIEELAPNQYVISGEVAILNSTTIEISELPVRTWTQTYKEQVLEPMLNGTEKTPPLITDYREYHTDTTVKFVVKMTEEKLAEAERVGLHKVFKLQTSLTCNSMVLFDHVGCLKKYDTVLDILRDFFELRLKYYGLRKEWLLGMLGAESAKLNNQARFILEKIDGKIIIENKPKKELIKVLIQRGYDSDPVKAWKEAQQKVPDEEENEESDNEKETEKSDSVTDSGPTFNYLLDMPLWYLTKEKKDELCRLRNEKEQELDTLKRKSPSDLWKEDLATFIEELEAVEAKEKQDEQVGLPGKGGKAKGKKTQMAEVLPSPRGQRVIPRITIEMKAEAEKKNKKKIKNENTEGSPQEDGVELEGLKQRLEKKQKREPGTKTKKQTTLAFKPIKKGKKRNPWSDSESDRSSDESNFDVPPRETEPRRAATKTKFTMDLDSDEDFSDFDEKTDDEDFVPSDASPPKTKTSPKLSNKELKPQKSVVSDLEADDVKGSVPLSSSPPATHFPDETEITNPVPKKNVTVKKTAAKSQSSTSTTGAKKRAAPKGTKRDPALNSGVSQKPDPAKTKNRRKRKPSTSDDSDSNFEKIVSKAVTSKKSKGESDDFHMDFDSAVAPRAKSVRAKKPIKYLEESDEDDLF
Method: Topoisomerase II inhibitory potential of IS217 was evaluated using widely reported kinetoplast DNA as test system in presence of Topoisomerase II enzyme. IS217 was tested at concentrations ranging from 0.01 μg/ml to 1 mg/ml. Doxorubucin hydrochloride and nalidixic acid were used as positive controls at the concentration of 10 μM and 1 mg/ml, respectively.
Inhibition of release of decatenated KDNA products was used as a specific marker to assess the inhibitory activity of IS217 on topoisomerase II enzyme, which was determined by using 1% agarose gel electrophoresis.

[11] = tested on: IMQ induced psoriasis mouse model; test: Proof of concept efficacy study, SC and topical route, IMQ-induced psoriasis mice model; type: in vivo, BALB/c mice
Method: The study objective was to validate the efficacy of IS 217 through Parental route and to study the efficacy of 1% IS 217 Cream Formulation through topically and to fix dose levels and treatment mode for further proof of concept studies and included with SC dose ([…] and 1.2 mg/kg) as proof of concept studies.
The study was conducted to evaluate efficacy of test compound IS217 (topical and subcutaneous route) on IMQ induced psoriasis mouse model.
Test items: IS217 cream formulation (topical treatment) and IS217 powder vials (subcutaneous treatment) along with placebo were provided.
Standard Drugs: 1.0.01% Batamethasone cream (Betnovate®); 100 mg/4 ml bevacuzimab (Avastin®)
Study animals: 8-9 weeks old male BALB/c mice were used for the study.
Treatment period was from day 1 to day 14. IMQ cream application: 5% IMQ cream, 65 mg was applied on shaved back and 5 mg on each ear during study period. Treatment regimen: treatment to be given twice a day-test drug high dose. 2-hour difference was taken between application of IMQ and application of test drug. 8-hour difference was taken between second application of test drug.
Required quantity of IS217 compounds was weighed on Sartorius weighing balance. Weighed amount was dissolved in 10% Propylene glycol.
• IMQ (Imigod, Glenmark pharmaceuticals) was weighed every day prior to application. • 65 mg of 5% IMQ cream was applied on shaved back of animals with help of spatula. 5 mg IMQ cream was applied on each ear of mouse. • IMQ application was done every day for 14 days and on day 15 studies were terminated. (Except for group 4 and group 5) • Group 4 was terminated on day 17 (post 14 days of treatment) • Group 5 was terminated on day 21 (post 14 days of treatment) • Group 4 and 5 received similar duration of test formulation as per group 3. • Group 4 received 17 days IMQ application, group 5 received 20 days IMQ application.
• Treatment to all the groups were done two hours post IMQ cream application • Formulation for topical application were weighted daily on Sartorius balance • Formulation for SC treatment was prepared fresh every day as per procedure mentioned above. • Standard drug Betamethasone was weighed daily and applied topically to respective treatment group • Bevacizumab was prepared fresh at the time of dosing. • All the treatments were given as per study design

[12] = tested on: TNF-α, IFN-γ, TARC, TSLP, IL-6, IL-8, IL-23, IL-17A and IL-1-0 levels; test: Cytokine levels in LPS stimulated RAW264.7 cells and HaCaT cells; type: cell-based; conditions: LPS stimulated RAW264.7 and HaCaT cells, vs untreated controls
Source text: In pathogenesis of psoriasis, angiogenesis and tyrosine kinases involves cell proliferation, cell migration, DNA Fragmentation and tube formation in endothelial cells. […] RAW264.7 cells (Murine macrophage cell line) which is stimulated with LPS and in HaCaT cells human keratinocytes (HaCaT) TNF-α, IFN-γ, TARC, TSLP, IL-6, IL-8, IL-23, IL-17A and IL-1-0 levels were overexpressed in disease pathogenesis, but when treated with IS217, all the above mentioned cytokines levels are decreased when compared with untreated controls.

T1 sequence (P33261 whole entry): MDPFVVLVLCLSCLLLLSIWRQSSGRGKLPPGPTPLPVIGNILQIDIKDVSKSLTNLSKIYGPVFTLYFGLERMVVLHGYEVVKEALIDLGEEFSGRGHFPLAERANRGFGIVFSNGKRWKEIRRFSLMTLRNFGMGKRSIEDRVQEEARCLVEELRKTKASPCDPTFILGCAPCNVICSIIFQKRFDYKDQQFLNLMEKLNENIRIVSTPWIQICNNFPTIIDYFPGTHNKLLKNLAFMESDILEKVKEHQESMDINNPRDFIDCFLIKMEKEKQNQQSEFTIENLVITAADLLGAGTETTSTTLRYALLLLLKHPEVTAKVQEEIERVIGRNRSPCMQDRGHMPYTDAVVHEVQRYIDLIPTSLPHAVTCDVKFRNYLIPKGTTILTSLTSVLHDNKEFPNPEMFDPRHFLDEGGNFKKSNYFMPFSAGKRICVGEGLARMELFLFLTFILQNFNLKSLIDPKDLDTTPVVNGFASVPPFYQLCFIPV

Question: For “H-FAKKFAKKFK-OH [IS217, H-Phe-Ala-Lys-Lys-Phe-Ala-Lys-Lys-Phe-Lys-OH]”, which inhibition at 10 μg/mL [1] is on record?
Answer: < 20%

Question: What about the inhibition at 10 μg/mL [2] of the same substance?
Answer: < 20%

Question: And the inhibition at 10 μg/mL [3]?
Answer: < 20%

Question: And the inhibition at 10 μg/mL [4]?
Answer: < 20%

Question: What about the inhibition at 10 μg/mL [5] of the same substance?
Answer: < 20%

Question: And the “inhibition potential towards CYP1A2 as compared to others” value [5]?
Answer: slightly higher potential

Question: And the metabolic stability [6]?
Answer: moderately metabolically stable

Question: What about the “activation of Caspase 3” value [7] of the same substance?
Answer: did not lead to activation

Question: What about the fraction unbound at 1 hour, 100 μg/ml [8] of the same substance?
Answer: 0.466

Question: What about the fraction unbound at 1 hour, 100 μg/ml ([8]; free fraction) of the same substance?
Answer: 0.466 ± 0.03

Question: What about the “mutagenicity (gene mutations at histidine locus)” value [9] of the same substance?
Answer: non mutagenic

Question: And the “topoisomerase II enzyme inhibition” value ([10]; 0.01 μg/ml to 10 μg/ml)?
Answer: no topoisomerase II enzyme inhibition

Question: And the “topoisomerase II enzyme inhibition” value ([10]; 100 μg/ml)?
Answer: some extent of inhibition

Question: And the “topoisomerase II enzyme inhibition” value ([10]; 1 mg/ml, highest tested concentration)?
Answer: better inhibition

Question: What about the “only epidermal hyperplasia (skin)” value ([11]; 0.6 mg/kg SC) of the same substance?
Answer: reduced

Question: And the “IL-17 level in ear, skin, and serum matrix” value ([11]; 0.6 mg/kg and 1.2 mg/kg SC)?
Answer: significant decrease

Question: What about the “TNF-α in ear homogenates samples” value ([11]; 0.6 mg/kg and 1.2 mg/kg SC) of the same substance?
Answer: decreased

Question: And the ear thickness ([11]; 0.6 mg/kg and 1.2 mg/kg SC)?
Answer: significantly decreased

Question: And the “overall efficacy versus the standard drug (Bevacizumab)” value ([11]; 0.6 mg/kg and 1.2 mg/kg SC)?
Answer: comparable

Question: And the “psoriatic score, ear weight” value ([11]; 0.6 mg/kg and 1.2 mg/kg SC)?
Answer: significant decrease

Question: What about the “scaling, erythema and skin thickness” value ([11]; 0.6 mg/kg and 1.2 mg/kg SC) of the same substance?
Answer: decrease

Question: And the “Epidermal hyperplasia, parakeratosis, leukocyte infiltration” value ([11]; 0.6 mg/kg and 1.2 mg/kg, vs vehicle)?
Answer: significantly decreased

Question: And the “epidermal hyperplasia, parakeratosis in skin” value ([11]; 1.2 mg/kg SC)?
Answer: reduced

Question: And the spleen weight ([11]; SC administration)?
Answer: Decrease

Question: And the “cytokines levels (TNF-α, IFN-γ, TARC, TSLP, IL-6, IL-8, IL-23, IL-17A, IL-1-0)” value [12]?
Answer: decreased
